Experimental data reported in the supplement of paper PMC11208160.

experiment: recombinant barcode read abundance after kanamycin selection (control-corrected) (log10(CPM+1)); higher = more efficient recombination; sequences stand for … in AGTGCAGAGAAAATCGGCCAGTTTTCTCTGCCTGCAGTCCGCATGCCGT…AGATTTATGCAGCGGACTGCCTTTCTCCCAAAGTGATAAACCGGACAGTATCATGGACCGGTTTTCCCGGTAATCCGTATTTGCAAGGTTGGTTTCACT; site = the 11-nt target
Method in brief: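 Targets were screened in pooled form in E. coli against IS621 bridge RNA target-binding loops. Recombination efficiency is based on barcode counts at recombinant junctions in counts per million, averaged and corrected for the control. Numbers are shown as log10(CPM+1), with duplicate plates on chloramphenicol/ampicillin LB agar (control) or chloramphenicol/ampicillin/kanamycin with 0.1 mM IPTG.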
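Further: IS621 recombinase and bridge RNA in Escherichia coli cells.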

Sequence | recombinant barcode read abundance (log10)
CGTCCTGCTTGGGTTCTAACCTGTTGCCT (site CGTCCTGCTAG) | 0.488
CGTCCTGCTTGGGTTCTAACCTGTTGCCT (site GGTCCTGCTAG) | 0
CGTCCTGCTTGGGTTCTAACCTGTTGCCT (site TGTCCTGCTAG) | 0.0535
CGTCCTTCTTGGGTTCTAACCTGTTGCCT (site AGTCCTTCTAT) | 0.351
CGTCCTTCTTGGGTTCTAACCTGTTGCCT (site CGTCCTTCTAG) | 0.0421
CGTCGACCTTGGGTTCTAACCTGTTGCCT (site AGTCGACCTAG) | 0.092
CGTCGACCTTGGGTTCTAACCTGTTGCCT (site CGTCGACCTAG) | 0.0617
CGTCGACCTTGGGTTCTAACCTGTTGCCT (site GGTCGACCTAG) | 0.227
CGTCGACCTTGGGTTCTAACCTGTTGCCT (site TGTCGACCTAG) | 0.194
CGTCTGACTTGGGTTCTAACCTGTTGCCA (site CGACTGACTAG) | 0.158
CGTCTGACTTGGGTTCTAACCTGTTGCCA (site CGTCTGACTTG) | 0.241
CGTGAAGCTTGGGTTCTAACCTGTTGCCT (site CGTATAGCTAG) | 0.183
CGTGAAGCTTGGGTTCTAACCTGTTGCCT (site CGTGAAGCTAG) | 0.795
CGTGCGACTTGGGTTCTAACCTGTTGCAT (site CGTACGACTAT) | 0.0517
CGTGCGACTTGGGTTCTAACCTGTTGCAT (site CGTCCGACTAT) | 0.0641
CGTGCGACTTGGGTTCTAACCTGTTGCAT (site CGTGCGACTAT) | 0.109
CGTGCGACTTGGGTTCTAACCTGTTGCAT (site CGTTCGACTAT) | 0.174
CGTGGGGCTTGGGTTCTAACCTGTTGCCT (site CGTATGGCTAG) | 0.075
CGTGGGGCTTGGGTTCTAACCTGTTGCCT (site CGTGGGGCTAG) | 0.156
CGTTCTCCTTGGGTTCTAACCTGTTGCTA (site CGTTCTCCTTA) | 0.637
CGTTCTCCTTGGGTTCTAACCTGTTGCTA (site GCAAGGTCTAT) | 0.0644
CTAAAGCCTTGGGTTCTAACCTGTTGCCT (site CTAAAGCCTAG) | 1.25
CTAAAGCCTTGGGTTCTAACCTGTTGCCT (site CTAAGGCCTAG) | 0.2
CTAAATACTTGGGTTCTAACCTGTTGCCG (site CTAAATACTCG) | 0.154
CTAAATACTTGGGTTCTAACCTGTTGCCG (site CTAAGCACTCG) | 0.188
CTAAATCCTTGGGTTCTAACCTGTTGCAT (site CTAAATCCTAT) | 0.963

Sequence | recombinant barcode read abundance (log10)
CTAAATCCTTGGGTTCTAACCTGTTGCAT (site CTAACTCCTAT) | 0.0807
CTAAATCCTTGGGTTCTAACCTGTTGCAT (site CTAAGTCCTAT) | 0.0712
CTAAATCCTTGGGTTCTAACCTGTTGCAT (site CTAATTCCTAT) | 0.232
CTAACCTCTTGGGTTCTAACCTGTTGCTA (site CTAACCTCTAA) | 0.0338
CTAACCTCTTGGGTTCTAACCTGTTGCTA (site CTAACCTCTCA) | 0.0433
CTAACCTCTTGGGTTCTAACCTGTTGCTA (site CTAACCTCTGA) | 1.01
CTAACCTCTTGGGTTCTAACCTGTTGCTA (site CTAACCTCTTA) | 1.42
CTAACGACTTGGGTTCTAACCTGTTGCGG (site CTAACGACTCC) | 2.47
CTAACGACTTGGGTTCTAACCTGTTGCGG (site CTAGCGACTCC) | 0.158
CTAACTCCTTGGGTTCTAACCTGTTGCAT (site CTAAATCCTAT) | 0.0865
CTAACTCCTTGGGTTCTAACCTGTTGCAT (site CTAACTCCTAT) | 1.1
CTAACTCCTTGGGTTCTAACCTGTTGCAT (site CTAAGTCCTAT) | 0.0705
CTAACTCCTTGGGTTCTAACCTGTTGCAT (site CTAATTCCTAT) | 0.0675
CTAAGAGCTTGGGTTCTAACCTGTTGCCG (site CTAAGAGCTCG) | 1.65
CTAAGAGCTTGGGTTCTAACCTGTTGCCG (site CTAAGAGCTCT) | 0.504
CTAAGCCCTTGGGTTCTAACCTGTTGCGG (site CTAAGCCCTCC) | 1.99
CTAAGCCCTTGGGTTCTAACCTGTTGCGG (site CTGAGCCCTCG) | 0.0837
CTAAGCTCTTGGGTTCTAACCTGTTGCTG (site CTAAGCTCTAA) | 0.259
CTAAGCTCTTGGGTTCTAACCTGTTGCTG (site CTAAGCTCTCA) | 1.25
CTAAGCTCTTGGGTTCTAACCTGTTGCTG (site CTAAGCTCTGA) | 0.23
CTAAGCTCTTGGGTTCTAACCTGTTGCTG (site CTAAGCTCTTA) | 0.349
CTAAGGTCTTGGGTTCTAACCTGTTGCAT (site CTAAGGTCTAA) | 0.688
CTAAGGTCTTGGGTTCTAACCTGTTGCAT (site CTAAGGTCTAC) | 0.176
CTAAGGTCTTGGGTTCTAACCTGTTGCAT (site CTAAGGTCTAG) | 0.214
CTAAGGTCTTGGGTTCTAACCTGTTGCAT (site CTAAGGTCTAT) | 2.33
CTAAGTCCTTGGGTTCTAACCTGTTGCAT (site CTAAATCCTAT) | 0.809

Sequence | recombinant barcode read abundance (log10)
CTAAGTCCTTGGGTTCTAACCTGTTGCAT (site CTAACTCCTAT) | 0.0677
CTAAGTCCTTGGGTTCTAACCTGTTGCAT (site CTAAGTCCTAT) | 1.34
CTAAGTCCTTGGGTTCTAACCTGTTGCAT (site CTAATTCCTAT) | 0.116
CTAATAGCTTGGGTTCTAACCTGTTGCCA (site AGTCCGTCTAT) | 0.186
CTAATAGCTTGGGTTCTAACCTGTTGCCA (site CTAATAGCTTG) | 0.262
CTAATGACTTGGGTTCTAACCTGTTGCAC (site CTAATGACTGT) | 1.43
CTAATGACTTGGGTTCTAACCTGTTGCAC (site CTAATGCCTAT) | 0.227
CTAATGCCTTGGGTTCTAACCTGTTGCAT (site CTAATGACTGT) | 0.0624
CTAATGCCTTGGGTTCTAACCTGTTGCAT (site CTAATGCCTAT) | 0.175
CTAATTACTTGGGTTCTAACCTGTTGCAC (site CTAATTACTGT) | 0.249
CTAATTACTTGGGTTCTAACCTGTTGCAC (site GTAACTACTGT) | 0.114
CTAATTACTTGGGTTCTAACCTGTTGCCT (site CTAATTACTAG) | 0.946
CTAATTACTTGGGTTCTAACCTGTTGCCT (site CTACTTACTAG) | 0.0931
CTAATTACTTGGGTTCTAACCTGTTGCCT (site CTAGTTACTAG) | 0.159
CTAATTACTTGGGTTCTAACCTGTTGCCT (site CTATTTACTAG) | 0.196
CTAATTCCTTGGGTTCTAACCTGTTGCAT (site CTAAATCCTAT) | 0.0881
CTAATTCCTTGGGTTCTAACCTGTTGCAT (site CTAACTCCTAT) | 0.0994
CTAATTCCTTGGGTTCTAACCTGTTGCAT (site CTAAGTCCTAT) | 0.0341
CTAATTCCTTGGGTTCTAACCTGTTGCAT (site CTAATTCCTAT) | 0.252
CTACACTCTTGGGTTCTAACCTGTTGCCT (site CAACACTCTAG) | 1.07
CTACACTCTTGGGTTCTAACCTGTTGCCT (site CCACACTCTAG) | 0.409
CTACACTCTTGGGTTCTAACCTGTTGCCT (site CGACACTCTAG) | 0.28
CTACACTCTTGGGTTCTAACCTGTTGCCT (site CTACACTCTAG) | 2.18
CTACAGCCTTGGGTTCTAACCTGTTGCTT (site CTACAACCTAA) | 0.636
CTACAGCCTTGGGTTCTAACCTGTTGCTT (site CTACACCCTAA) | 0.0559
